According to patent US8034377B2, “DHA esters and use thereof in treatment and prevention of cardiovascular disease” (Pierre Fabre Medicament, priority 2006, dated 2011):
Where two headings read alike, the source gives them in different places.

Biological target: T1, human Kv 1.5 channel (hKv 1.5) (Homo sapiens, UniProt P22460)
T1 construct: expressed in transfected cells
Experiment: Ultrarapid potassium current (IKur), whole-cell patch-clamp in HEK 293-hKv 1.5 cells
Assay type: cell-based
Text: The cardiac action potential is the basic electrical unit of excitable cardiac cells and represents the activity of several types of ion channels responsible for the various phases of the action potential. Different types of action potentials correspond to different cardiac regions, thus allowing sequential and coordinated activity in these regions. For this reason, Kv 1.5 potassium channels, coded by the KCNA5 gene, are expressed only in auricle tissue and are responsible for the ultrarapid potassium current (IKur) which acts in the repolarization of the auricular action potential. This highly localized expression of Kv 1.5 is in fact a target of choice in the treatment of auricular fibrillation, a pathology in which changes in auricular action potentials are observed.
Thus, the effects of DHA and EPA on IKur were studied. For this purpose, the human isoform of the Kv 1.5 channel (hKv 1.5) was transfected in a stable manner in HEK 293 (human embryonic kidney) cells and the current resulting from the activity of these channels was studied using a whole-cell patch-clamp technique.
HEK 293-hKv 1.5 cells are grown under standard conditions (37° C., incubator at […] and 5% CO2) in Falcon dishes up to 80% confluence. They are then removed and cultured in 35 mm petri dishes containing the following culture medium: DMEM (Invitrogen); 10% fetal bovine serum (Invitrogen); a mixture of 100 U/ml penicillin, 100 μg/ml streptomycin and 0.25 mg/ml glutamine (Invitrogen); and 1.25 mg/ml of Geneticin® as a selective antibiotic.
IKur is studied using the whole-cell patch-clamp technique at ambient temperature (19-22° C.). The pipette medium contains: 125 mM K-aspartate, 20 mM KCl, 10 mM EGTA, 5 mM HEPES, 5 mM Mg-ATP, 1 mM MgCl2, pH 7.3 (KOH). The extracellular medium contains: 140 mM NaCl, 20 mM HEPES, 5 mM D(+)-glucose, 5 mM KCl, 2 mM CaCl2, 1 mM MgCl2, pH 7.4 (NaOH).
IKur is induced every 15 seconds by 300 ms, +60 mV depolarizing pulses from a −80 mV holding potential, followed by −50 mV repolarization. The amplitude of the current peak is established from the maximum current obtained during the first 100 ms of the depolarizing pulse. The amplitude of the current at the end of the pulse is determined during the last 20 ms of the depolarizing pulse.
DHA and EPA are supplied by Sigma. Stock solutions (10 mM) are prepared in ethanol and the final concentration of solvent is 0.25%.

T1 sequence (P22460 whole entry): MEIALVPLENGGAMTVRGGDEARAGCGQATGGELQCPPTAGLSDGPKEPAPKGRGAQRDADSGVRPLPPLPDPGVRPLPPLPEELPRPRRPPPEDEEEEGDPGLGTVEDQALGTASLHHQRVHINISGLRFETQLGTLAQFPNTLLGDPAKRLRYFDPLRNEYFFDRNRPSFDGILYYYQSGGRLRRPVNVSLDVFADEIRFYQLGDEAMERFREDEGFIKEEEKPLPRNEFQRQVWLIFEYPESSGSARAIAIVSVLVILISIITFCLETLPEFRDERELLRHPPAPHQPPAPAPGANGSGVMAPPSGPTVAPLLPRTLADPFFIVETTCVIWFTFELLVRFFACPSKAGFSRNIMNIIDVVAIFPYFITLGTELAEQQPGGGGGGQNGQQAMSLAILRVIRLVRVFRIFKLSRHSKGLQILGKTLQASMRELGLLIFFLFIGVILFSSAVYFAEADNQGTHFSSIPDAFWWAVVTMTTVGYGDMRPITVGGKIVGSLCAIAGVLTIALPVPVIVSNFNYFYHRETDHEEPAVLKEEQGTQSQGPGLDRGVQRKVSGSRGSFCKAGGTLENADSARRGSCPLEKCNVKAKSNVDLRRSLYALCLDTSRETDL

| inhibition at 1 µM (1 μM, HEK 293-hKv 1.5, +60 mV pulse, max current in first 100 ms, read-out: Percent inhibition of Peak IKur, Mean) | inhibition at 1 µM (1 μM, HEK 293-hKv 1.5, last 20 ms of 300 ms depolarizing pulse, read-out: Percent inhibition of End of pulse IKur, Mean) | inhibition at 3.2 µM (3.2 μM, HEK 293-hKv 1.5, +60 mV pulse, max current in first 100 ms, read-out: Percent inhibition of Peak IKur, Mean) | inhibition at 3.2 µM (3.2 μM, HEK 293-hKv 1.5, last 20 ms of 300 ms depolarizing pulse, read-out: Percent inhibition of End of pulse IKur, Mean) | inhibition at 5.6 µM (HEK 293-hKv 1.5, +60 mV pulse, max current in first 100 ms, read-out: Percent inhibition of Peak IKur, Mean) | inhibition at 5.6 µM (HEK 293-hKv 1.5, last 20 ms of 300 ms depolarizing pulse, read-out: Percent inhibition of End of pulse IKur, Mean) | inhibition at 10 µM (10 μM, HEK 293-hKv 1.5, +60 mV pulse, max current in first 100 ms, read-out: Percent inhibition of Peak IKur, Mean) | inhibition at 10 µM (10 μM, HEK 293-hKv 1.5, last 20 ms of 300 ms depolarizing pulse, read-out: Percent inhibition of End of pulse IKur, Mean) | inhibition at 25 µM (25 μM, HEK 293-hKv 1.5, +60 mV pulse, max current in first 100 ms, read-out: Percent inhibition of Peak IKur, Mean) | inhibition at 25 µM (25 μM, HEK 293-hKv 1.5, last 20 ms of 300 ms depolarizing pulse, read-out: Percent inhibition of End of pulse IKur, Mean) | Percent inhibition of Peak IKur, Mean (1 μM, HEK 293-hKv 1.5, +60 mV pulse, max current in first 100 ms) | Percent inhibition of End of pulse IKur, Mean (1 μM, HEK 293-hKv 1.5, last 20 ms of 300 ms depolarizing pulse) | Percent inhibition of Peak IKur, Mean (3.2 μM, HEK 293-hKv 1.5, +60 mV pulse, max current in first 100 ms) | Percent inhibition of End of pulse IKur, Mean (3.2 μM, HEK 293-hKv 1.5, last 20 ms of 300 ms depolarizing pulse) | Percent inhibition of Peak IKur, Mean (10 μM, HEK 293-hKv 1.5, +60 mV pulse, max current in first 100 ms) | Percent inhibition of End of pulse IKur, Mean (10 μM, HEK 293-hKv 1.5, last 20 ms of 300 ms depolarizing pulse) | Percent inhibition of Peak IKur, Mean (25 μM, HEK 293-hKv 1.5, +60 mV pulse, max current in first 100 ms) | Percent inhibition of End of pulse IKur, Mean (25 μM, HEK 293-hKv 1.5, last 20 ms of 300 ms depolarizing pulse) | SMILES |
| --- | --- | --- | --- | --- | --- | --- | --- | --- | --- | --- | --- | --- | --- | --- | --- | --- | --- | --- |
| 8.2% | 10.1% | 10.9% | 14.5% | 15.4% | 33.7% | 22.6% | 78% | 58.1 ± 13.6% | 86.5 ± 3.4% |  |  |  |  |  |  |  |  | CC/C=C\C/C=C\C/C=C\C/C=C\C/C=C\C/C=C\CCC(=O)O [DHA, docosahexaenoic acid] |
|  |  |  |  |  |  |  |  |  |  | 14.6% | 14.9% | 16.1% | 19.9% | 17.5±6.4% | 36.6% | 5.4% | 61.6±7.3% | CC/C=C\C/C=C\C/C=C\C/C=C\C/C=C\CCCC(=O)O [EPA] |
